Experimental data taken from US20140166028A1, “Enhanced Delivery of Nicotine, THC, Tobacco, Cannabidiol or Base Alkaloid from an Electronic Cigarette or Other Vapor or Smoke Producing Device Through Use of an Absorption Conditioning Unit” (priority 2012, published 2014).
Where “and” joins values, the source holds several entries; their conditions need not be identical. Identical values can stand only once.

How the values were obtained:
[1] = Buffer power test: pH on 1X, 2X, 3X dilution with Dulbecco's phosphate buffered saline (DPBS); type: physicochemical; conditions: for pH 1X DPBS: 1X dilution with DPBS; for pH 1X DPBS / pH 2X DPBS / pH 3X DPBS / pH 0X DPBS: 22-23° C.; for 1× pH: 1× dilution with DPBS; for pH 2X DPBS: 2X dilution with DPBS; for 2× pH: 2× dilution with DPBS; for pH 3X DPBS: 3X dilution with DPBS; for 3× pH: 3× dilution with DPBS; for pH of the product or solution: undiluted (0×); for pH 0X DPBS: undiluted
Protocol: The pH of the resulting solution is tested and the test is passed if the resulting solution has a pH below 6.0.”
A Dulbecco phosphate buffer saline solution (DPBS) was purchased and used for all compositions at the 1×, 2× and 3× dilution. A typical composition for DPBS is provided below:

[2] = capsules with sesame oil, oral; cited from earlier work

| SMILES | pH 1X DPBS ([1]; listed as NaHCO3 .1M*) | pH 1X DPBS ([1]; listed as NaHCO3 .1M**) | 1× pH [1] | pH 2X DPBS ([1]; listed as NaHCO3 .1M*) | pH 2X DPBS ([1]; listed as NaHCO3 .1M**) | 2× pH [1] | pH 3X DPBS ([1]; listed as NaHCO3 .1M*) | pH 3X DPBS ([1]; listed as NaHCO3 .1M**) | 3× pH [1] | pH of the product or solution [1] | pH 0X DPBS [1] | pH 1X DPBS [1] | pH 2X DPBS [1] | pH 3X DPBS [1] | pH of the product or solution ([1]; listed as 0.1M Sodium Carbonate) | pH of the product or solution ([1]; listed as Sodium carbonate solution: 0.1M) | fraction entering the systemic circulation [2] |
| --- | --- | --- | --- | --- | --- | --- | --- | --- | --- | --- | --- | --- | --- | --- | --- | --- | --- |
| O=C([O-])O.[Na+] [0.1M Sodium Bicarbonate, sodium bicarbonate] | 7.9 and 7.7 | 7.7 | 7.9 and 7.7 | 7.5 and 7.6 | 7.5 | 7.5 | 7.5 and 7.6 | 7.5 | 7.5 | 8.1 | 8.1 | – | – | – | – | – | – |
| O=C([O-])[O-].[Na+].[Na+] [Na2CO3 .1M, sodium carbonate] | – | – | 10.9 | – | – | 10.8 | – | – | 10.6 | – | 11.5 and 11.3 | 10.9 and 11.1 | 11.1 | 11.1 | 11.3 | 11.5 | – |
| CCCCCc1cc(O)c2c(c1)OC(C)(C)[C@@H]1CCC(C)=C[C@@H]21 [dronabinol] | – | – | – | – | – | – | – | – | – | – | – | – | – | – | – | – | 10-20% |
